The source of these data is article PMC12250129, “Exploring the Therapeutic Potential of ^177Lu-PSMA-617 in a Mouse Model of Prostate Cancer Bone Metastases” (International Journal of Molecular Sciences, 2025).

Molecules are shown by their SMILES.

The subject of the series is bone metastases of LNCaP-luc prostate cancer. The series can be described thus: Biodistribution in mice with bone metastases of LNCaP-luc prostate cancer (gamma counter). The series is classed as in vivo, mouse. On the procedure: An in vivo imaging system was used for bioluminescence imaging (BLI) to visualize ASID mice with bone metastases of LNCaP-luc prostate cancer before the administration of ^177Lu-PSMA-617 (Figure 4A). Subsequently, ^177Lu-PSMA-617 (~37 MBq of Lu-177) was administered intravenously to mice with bone metastases, and NanoSPECT/CT imaging was performed at 4, 24, and 48 h post-administration (Figure 4B). Additionally, the mice were sacrificed, and their organs and tissues were extracted for quantitative analysis using a gamma counter at 1, 4, 24, and 48 h after injection (Figure 4C).
LNCaP-luc cells were harvested from culture and resuspended to 2 × 10^7 cells/mL in PBS. The cells were combined with an equal volume of Matrigel (BD Biosciences, Bedford, MA, USA) such that 5 × 10^5 cells were prepared for injection into the right tibia of anesthetized (inhaled anesthetic of 1–2% isoflurane) ASID mice. Intratibial injections were performed using a 29-gauge, 0.5-inch needle inserted through the tibial plateau of the flexed knee as described previously. The tumor was imaged, detected, and measured using a Bruker Small Animal Optical Imaging System (In Vivo Xtreme; Billerica, MA, USA). Mice were anesthetized with a mixture of oxygen and isoflurane, then intraperitoneally injected with 100 μL of D-luciferin (Xenogen; 30 mg/mL in PBS).
Mice received an intravenous injection of ^177Lu-PSMA-617 (equivalent to 37 MBq of ^177Lu) at 45 days after tumor implantation. The NanoSPECT/CT (Mediso Medical Imaging Systems, Arlington, VA, USA) was used to image in vivo. After the administration of ^177Lu-PSMA-617, mice inhaled an anesthetic containing 1–2% isoflurane during imaging acquisition. SPECT and X-ray CT images were obtained at 1, 4, 24, and 48 h after injection. NanoSPECT imaging was acquired using nine multipinhole gamma detectors and high-resolution collimators. The energy window was set to […] ± 10%; the image size was set to 256 × 256, and the field of view of 60 mm × 100 mm was used. Mice received an intravenous injection of ^177Lu-PSMA-617 (equivalent to 37 MBq of ^177Lu) at 45 days after tumor implantation. The distribution of ^177Lu-PSMA-617 in the mice bearing tumors was evaluated by a gamma counter (PerkinElmer, Waltham, MA, USA). The mice were sacrificed by carbon dioxide euthanasia at 1, 4, 24, and 48 h after administration. The blood, tumor, and normal organ/tissue were collected, and the uptake of radioactivity was measured by a gamma counter. The distribution data obtained using radioactivity count methods are plotted as %ID/g.

For `O=C([O-])CN1CCN(CC(=O)[O-])CCN(CC(=O)NCC2CCC(C(=O)N[C@@H](Cc3ccc4ccccc4c3)C(=O)NCCCC[C@H](NC(=O)N[C@@H](CCC(=O)O)C(=O)O)C(=O)O)CC2)CCN(CC(=O)[O-])CC1.[177Lu+3]` (some centres unmarked) [^177Lu-PSMA-617], the tumor-to-blood ratio by setting is: (1 h post-injection) 69.5; (24 h post-injection (maximum)) 434.4. In addition, the tumor-to-kidney ratio worked out at 0.3 (1 h post-injection) and 26.3 (48 h post-injection (maximum)). The tumor-to-muscle ratio is, setting by setting: (1 h post-injection) 60.2; (24 h post-injection (peak)) 857.4. The uptake in kidneys (1 h post-injection, i.v., ~37 MBq) came to 43.83 ± 3.41 %IA/g. The “uptake in LNCaP tumors” value reads like this: (4 h post-injection, i.v., ~37 MBq) 23.31 ± 0.94 %IA/g; (24 h post-injection, i.v., ~37 MBq) 12.88 ± 0.55 %IA/g. In addition, where the note is “i.v., ~37 MBq”, the “uptake in liver, lungs and spleen” value is reported as “low uptake”. Moreover, the urinary clearance (within 24 h) is more than 90%.
